Patent publication US5530126A, “Process for the preparation of substituted 6-(pyrazol-3yl)-1,4-benzoxazin-3-ones” (Monsanto Company, priority 1994, dated 1996)

Experiments:
Type in all cases: in vivo
Barnyardgrass [1] = assay: Pre-emergence herbicide test; conditions: Echinochloa crus-galli, read-out: % plant inhibition (Bygr); for inhibition at 1120 g/ha: 1.12 kg/ha
In short: (§1)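 Compound applied pre-emergence directly onto sown seeds in soil, then seeds covered with untreated topsoil. Plants grown in greenhouse with bottom watering. Inhibition (%) recorded visually at about 11 days.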

Wild buckwheat [2] = assay: Pre-emergence herbicide test; conditions: Fallopia convolvulus, read-out: % plant inhibition (Wibw); for inhibition at 1120 g/ha: 1.12 kg/ha
In short: as §1

Cocklebur [3] = assay: Pre-emergence herbicide test; conditions: Xanthium strumarium, read-out: % plant inhibition (Cobu); for inhibition at 1120 g/ha: 1.12 kg/ha
In short: as §1

Downy Brome [4] = assay: Pre-emergence herbicide test; conditions: Bromus tectorum, read-out: % plant inhibition (Dobr); for inhibition at 1120 g/ha: 1.12 kg/ha
In short: as §1

Annual bluegrass [5] = assay: Pre-emergence herbicide test; conditions: read-out: % plant inhibition (Anbg); for inhibition at 1120 g/ha: 1.12 kg/ha
In short: as §1

Yellow nutsedge [6] = assay: Pre-emergence herbicide test; conditions: Cyperus, read-out: % plant inhibition (Yens); for inhibition at 1120 g/ha: 1.12 kg/ha
In short: as §1

Velvetleaf [7] = assay: Pre-emergence herbicide test; conditions: Abutilon theophrasti, read-out: % plant inhibition (Vele); for inhibition at 1120 g/ha: 1.12 kg/ha
In short: as §1

Indian Mustard [8] = assay: Pre-emergence herbicide test; conditions: Brassica juncea, read-out: % plant inhibition (Inmu); for inhibition at 1120 g/ha: 1.12 kg/ha
In short: as §1

Seedling johnsongrass [9] = assay: Pre-emergence herbicide test; conditions: Sorghum halepense, read-out: % plant inhibition (Sejg); for inhibition at 1120 g/ha: 1.12 kg/ha
In short: as §1

Morningglory [10] = assay: Pre-emergence herbicide test; conditions: Ipomoea, read-out: % plant inhibition (Mogl); for inhibition at 1120 g/ha: 1.12 kg/ha
In short: as §1

Barnyardgrass [11] = assay: Post-emergence herbicide test; conditions: Echinochloa crus-galli, read-out: % plant inhibition (Bygr); for inhibition at 1120 g/ha: 1.12 kg/ha
In short: (§2)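 Seeds or propagules are pressed into compacted topsoil, covered and sub-irrigated in the greenhouse. At two to three weeks the plants are atomizer-sprayed (170.3 kPa, 1870 L/Ha, ~0.4% emulsifier by volume). Percent inhibition relative to control is observed about 10–14 days later.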

Wild buckwheat [12] = assay: Post-emergence herbicide test; conditions: Fallopia convolvulus, read-out: % plant inhibition (Wibw); for inhibition at 1120 g/ha: 1.12 kg/ha
In short: as §2

Cocklebur [13] = assay: Post-emergence herbicide test; conditions: Xanthium strumarium, read-out: % plant inhibition (Cobu); for inhibition at 1120 g/ha: 1.12 kg/ha
In short: as §2

Downy Brome [14] = assay: Post-emergence herbicide test; conditions: Bromus tectorum, read-out: % plant inhibition (Dobr); for inhibition at 1120 g/ha: 1.12 kg/ha
In short: as §2

Annual bluegrass [15] = assay: Post-emergence herbicide test; conditions: read-out: % plant inhibition (Anbg); for inhibition at 1120 g/ha: 1.12 kg/ha
In short: as §2

Yellow nutsedge [16] = assay: Post-emergence herbicide test; conditions: Cyperus, read-out: % plant inhibition (Yens); for inhibition at 1120 g/ha: 1.12 kg/ha
In short: as §2

Velvetleaf [17] = assay: Post-emergence herbicide test; conditions: Abutilon theophrasti, read-out: % plant inhibition (Vele); for inhibition at 1120 g/ha: 1.12 kg/ha
In short: as §2

Indian Mustard [18] = assay: Post-emergence herbicide test; conditions: Brassica juncea, read-out: % plant inhibition (Inmu); for inhibition at 1120 g/ha: 1.12 kg/ha
In short: as §2

Seedling johnsongrass [19] = assay: Post-emergence herbicide test; conditions: Sorghum halepense, read-out: % plant inhibition (Sejg); for inhibition at 1120 g/ha: 1.12 kg/ha
In short: as §2

Morningglory [20] = assay: Post-emergence herbicide test; conditions: Ipomoea, read-out: % plant inhibition (Mogl); for inhibition at 1120 g/ha: 1.12 kg/ha
In short: as §2

Row | Structure (SMILES) | inhibition at 1120 g/ha (Barnyardgrass [1]) | inhibition at 1120 g/ha (Wild buckwheat [2]) | inhibition at 1120 g/ha (Cocklebur [3]) | inhibition at 1120 g/ha (Downy Brome [4]) | inhibition at 1120 g/ha (Annual bluegrass [5]) | inhibition at 1120 g/ha (Yellow nutsedge [6]) | inhibition at 1120 g/ha (Velvetleaf [7]) | inhibition at 1120 g/ha (Indian Mustard [8]) | inhibition at 1120 g/ha (Seedling johnsongrass [9]) | inhibition at 1120 g/ha (Morningglory [10]) | inhibition at 1120 g/ha (Barnyardgrass [11]) | inhibition at 1120 g/ha (Wild buckwheat [12]) | inhibition at 1120 g/ha (Cocklebur [13]) | inhibition at 1120 g/ha (Downy Brome [14]) | inhibition at 1120 g/ha (Annual bluegrass [15]) | inhibition at 1120 g/ha (Yellow nutsedge [16]) | inhibition at 1120 g/ha (Velvetleaf [17]) | inhibition at 1120 g/ha (Indian Mustard [18]) | inhibition at 1120 g/ha (Seedling johnsongrass [19]) | inhibition at 1120 g/ha (Morningglory [20]) | further results
1 | CCC(C)COC(=O)COc1cc(-c2nn(C)c(C(F)(F)F)c2Cl)c(F)cc1Cl (stereo not shown) [Compound 287] | 0% | 80% | 90% | 0% | 0% | 30% | 100% | 60% | 0% | 70% | 70% | 90% | 100% | 10% | 0% | 10% | 100% | 20% | 80% | 100% | 
2 | COCCOc1cc(-c2nn(C)c(C(F)(F)F)c2Cl)c(F)cc1Cl [Compound 270, 4-Chloro-3-(4-chloro-2-fluoro-5-(methoxyethoxy)phenyl)-1-methyl-5-(trifluoromethyl)-1H-pyrazole] | 90% | 100% | 60% | 100% | 70% | 30% | 100% | 100% | 70% | 100% | 100% | 100% | 90% | 100% | 90% | 60% | 100% | 90% | 90% | 100% | 
3 | Cn1nc(-c2cc(CO)c(Cl)cc2F)c(Cl)c1C(F)(F)F [Compound 122, 2-chloro-5-[4-chloro-1-methyl-5-(trifluoromethyl)-1H-pyrazol-3-yl]-4-fluorobenzenemethanol] | 80% | 70% | 40% | 20% | 20% | 0% | 100% | 100% | 40% | 80% | 70% | 90% | 60% | 20% | 20% | 20% | 100% | 50% | 70% | 80% | 
4 | CCOC(=O)CON=Cc1cc(-c2nn(C)c(C(F)(F)F)c2Cl)c(F)cc1Cl [Compound 129] | 20% | 100% | 90% | 40% | 0% | 0% | 100% | 90% | 60% | 100% | 80% | 100% | 100% | 80% | 40% | 30% | 100% | 90% | 90% | 90% | 
5 | Cn1nc(C(F)(F)F)c(Cl)c1-c1cc(F)ccc1F [Compound 69] |  |  |  |  |  |  |  |  |  |  |  |  |  |  |  |  |  |  |  |  | inhibition at 11210 g/ha (Barnyardgrass [1]; 11.21 kg/ha): 0%; inhibition at 11210 g/ha (Wild buckwheat [2]; 11.21 kg/ha): 0%; inhibition at 11210 g/ha (Cocklebur [3]; 11.21 kg/ha): 0%; inhibition at 11210 g/ha (Downy Brome [4]; 11.21 kg/ha): 0%; inhibition at 11210 g/ha (Annual bluegrass [5]; 11.21 kg/ha): 0%; inhibition at 11210 g/ha (Yellow nutsedge [6]; 11.21 kg/ha): 0%; inhibition at 11210 g/ha (Velvetleaf [7]; 11.21 kg/ha): 50%; inhibition at 11210 g/ha (Indian Mustard [8]; 11.21 kg/ha): 0%; inhibition at 11210 g/ha (Seedling johnsongrass [9]; 11.21 kg/ha): 0%; inhibition at 11210 g/ha (Morningglory [10]; 11.21 kg/ha): 30%; inhibition at 11210 g/ha (Barnyardgrass [11]; 11.21 kg/ha): 0%; inhibition at 11210 g/ha (Wild buckwheat [12]; 11.21 kg/ha): 0%; inhibition at 11210 g/ha (Cocklebur [13]; 11.21 kg/ha): 0%; inhibition at 11210 g/ha (Downy Brome [14]; 11.21 kg/ha): 0%; inhibition at 11210 g/ha (Annual bluegrass [15]; 11.21 kg/ha): 0%; inhibition at 11210 g/ha (Yellow nutsedge [16]; 11.21 kg/ha): 0%; inhibition at 11210 g/ha (Velvetleaf [17]; 11.21 kg/ha): 10%; inhibition at 11210 g/ha (Indian Mustard [18]; 11.21 kg/ha): 0%; inhibition at 11210 g/ha (Seedling johnsongrass [19]; 11.21 kg/ha): 0%; inhibition at 11210 g/ha (Morningglory [20]; 11.21 kg/ha): 10%
